In paper PMC4564171 (PLoS ONE, 2015):
“And” between values parts separate entries of the source, which are not always exact repeats. Identical values can stand only once.

What was measured:
[1] = system: initial S. flexneri invasion; set-up: method as in PMID 24549153, PMID 20237205; settings: at concentrations at or below its IC50 in the reporter assay; cited from earlier work
[2] = system: spread of an active S. flexneri infection; settings: at concentrations at or below their IC50s in the reporter assay; cited from earlier work
[3] = system: 10 bp pvirB 51-60 FID (DNA, duplex) TAAAATAGTA/TACTATTTTA; experiment: fluorescent intercalator displacement (ethidium bromide); settings: 0.1 M NaCl; 0.1 M Tris-HCl pH 8.0, room temperature; 7.5 μM ethidium displaced; 1.5 μM DNA; 100 μM compound
[4] = system: pvirB 21-30 (DNA, duplex) AATAAAGATA/TATCTTTATT; experiment: as above; settings: 0.1 M NaCl; 0.1 M Tris-HCl pH 8.0; ethidium displaced; 2 μM compound, single concentration
[5] = system: 60 bp pvirB FID (DNA, duplex) AGAATATTATTCTTTTATCCAATAAAGATAAATTGCATCAATCCAGCTATTAAAATAGTA/TACTATTTTAATAGCTGGATTGATGCAATTTATCTTTATTGGATAAAAGAATAATATTCT; experiment: as above; settings: 0.1 M NaCl; 0.1 M Tris-HCl pH 8.0, room temperature; 45 μM ethidium displaced; 1.5 μM DNA; 100 μM compound
[6] = system: pvirB 31-40 (DNA, duplex) AATTGCATCA/TGATGCAATT; experiment: as above; settings: 0.1 M NaCl; 0.1 M Tris-HCl pH 8.0; ethidium displaced; 2 μM compound, single concentration
[7] = system: 10 bp pvirB FID DNA probes; experiment: Fluorescence intercalator displacement (FID) assay, 10 bp probes; assay type: binding, Shigella flexneri; settings: for 10 bp pvirB 51–60 FID probe %fluorescence: ethidium bromide 7.5 μM, probe 1.5 μM
Method: The FID protocol was based on previously published studies and was conducted in triplicate. For the assay, black, half-area, 96-well plates (Corning, Twerksbury, MA) were used. First, 70 μL of ethidium bromide in Tris Buffer (0.1 M Tris HCl, 0.1 M NaCl, pH 8.0) was added to all wells. The concentration of ethidium bromide was contingent upon the length of the DNA probe that was used. For the 60 bp pvirB FID DNA probe, the final ethidium bromide concentration used was 45 μM; whereas, for the 10 bp pvirB (51–60) FID DNA probe, the final ethidium bromide concentration used was 7.5 μM. Next, 10 μL of either pvirB FID DNA probes (10 or 60 bp) in TE/NaCl buffer (see above) or 10 μL of TE/NaCl buffer (background fluorescence control) were added to the appropriate wells of the plate. The final concentrations of the pvirB FID DNA probes were 1.5 μM. Lastly, 20 μL of test compound (either 19615 or Berenil) in 10% DMSO Tris Buffer or 20 μL of 10% DMSO Tris Buffer (100% fluorescence control) were added to the appropriate wells of the plate. […] After the addition of all reagents, the plates were protected from light and allowed to equilibrate for 30 min on an orbital shaker at room temperature. Following equilibration, fluorescence was measured […] using a Biotek Synergy H1 plate reader (Winooski, VT). The average background fluorescence was subtracted from all data generated and %fluorescence was calculated for all wells containing compound via the following formula: %fluorescence=Ftest/F100%^*100 where: Ftest = the average fluorescence value obtained for each test compound and F100% = the average fluorescence value obtained for each 100% fluorescence control.

[8] = system: pvirB 11-20 (DNA, duplex) TCTTTTATCC/GGATAAAAGA; experiment: fluorescent intercalator displacement (ethidium bromide); settings: 0.1 M NaCl; 0.1 M Tris-HCl pH 8.0; ethidium displaced; 2 μM compound, single concentration
[9] = system: pvirB 1-10 (DNA, duplex) AGAATATTAT/ATAATATTCT; experiment: as above; settings: 0.1 M NaCl; 0.1 M Tris-HCl pH 8.0; ethidium displaced; 2 μM compound, single concentration
[10] = system: 60 bp pvirB FID DNA probe; experiment: Fluorescence intercalator displacement (FID) assay, 60 bp probe; assay type: binding, Shigella flexneri; settings: for 60 bp pvirB FID probe %fluorescence: ethidium bromide 45 μM, probe 1.5 μM
Method: The FID protocol was based on previously published studies and was conducted in triplicate. For the assay, black, half-area, 96-well plates (Corning, Twerksbury, MA) were used. First, 70 μL of ethidium bromide in Tris Buffer (0.1 M Tris HCl, 0.1 M NaCl, pH 8.0) was added to all wells. The concentration of ethidium bromide was contingent upon the length of the DNA probe that was used. For the 60 bp pvirB FID DNA probe, the final ethidium bromide concentration used was 45 μM; whereas, for the 10 bp pvirB (51–60) FID DNA probe, the final ethidium bromide concentration used was 7.5 μM. Next, 10 μL of either pvirB FID DNA probes (10 or 60 bp) in TE/NaCl buffer (see above) or 10 μL of TE/NaCl buffer (background fluorescence control) were added to the appropriate wells of the plate. The final concentrations of the pvirB FID DNA probes were 1.5 μM. Lastly, 20 μL of test compound (either 19615 or Berenil) in 10% DMSO Tris Buffer or 20 μL of 10% DMSO Tris Buffer (100% fluorescence control) were added to the appropriate wells of the plate. The final concentrations of each test compound ranged from 12.5 μM to 100 μM. After the addition of all reagents, the plates were protected from light and allowed to equilibrate for 30 min on an orbital shaker at room temperature. Following equilibration, fluorescence was measured […] using a Biotek Synergy H1 plate reader (Winooski, VT). The average background fluorescence was subtracted from all data generated and %fluorescence was calculated for all wells containing compound via the following formula: %fluorescence=Ftest/F100%^*100 where: Ftest = the average fluorescence value obtained for each test compound and F100% = the average fluorescence value obtained for each 100% fluorescence control.

COc1ccc(NC(=O)c2nc(S(C)(=O)=O)ncc2Cl)cc1Cl [compound 144092]
Inhibition of initial S. flexneri invasion [1]: approximately 50%
Inhibition of the spread of an active S. flexneri infection [2]: approximately 75%

CC(=O)NCC(=O)O.CC(=O)NCC(=O)O.N=C(N)c1ccc(N=NNc2ccc(C(=N)N)cc2)cc1 [Berenil, reference compound]
%fluorescence [3]: 46 ± 1%
%fluorescence [4]: 81 ± 4%
%fluorescence [5]: 48 ± 2%
%fluorescence [6]: 89 ± 5%
%fluorescence, 10 bp fragment pvirB 21-30 ([7]; compound 2 μM, preliminary FID screen, 5'-AATAAAGATA-3'): 81% ± 4%
%fluorescence, 10 bp fragment pvirB 31-40 ([7]; compound 2 μM, preliminary FID screen, 5'-AATTGCATCA-3'): 89% ± 5%
%fluorescence, 10 bp fragment pvirB 1-10 ([7]; compound 2 μM, preliminary FID screen, 5'-AGAATATTAT-3'): 45% ± 2%
%fluorescence, 10 bp fragment pvirB 41-50 ([7]; compound 2 μM, preliminary FID screen, 5'-ATCCAGCTAT-3'): 96% ± 2%
%fluorescence, 10 bp fragment pvirB 51-60 ([7]; compound 2 μM, preliminary FID screen, 5'-TAAAATAGTA-3'): 67% and 67% ± 0%
%fluorescence, 10 bp fragment pvirB 11-20 ([7]; compound 2 μM, preliminary FID screen, 5'-TCTTTTATCC-3'): 66% ± 0%
10 bp pvirB 51–60 FID probe %fluorescence ([7]; compound 12.5 μM): 52% ± 1%
10 bp pvirB 51–60 FID probe %fluorescence ([7]; compound 25 μM): 51% ± 2%
10 bp pvirB 51–60 FID probe %fluorescence ([7]; compound 50 μM): 51% ± 1%
10 bp pvirB 51–60 FID probe %fluorescence ([7]; compound 100 μM): 46% ± 1%
%fluorescence [8]: 66 ± 0%
%fluorescence [9]: 45 ± 2%
Displacement of ethidium bromide from the pvirB DNA probes (FID) ([10]; 12.5 to 100 μM, both 60 bp and 10 bp probes): able to displace ethidium bromide
60 bp pvirB FID probe %fluorescence ([10]; compound 12.5 μM): 76% ± 2%
60 bp pvirB FID probe %fluorescence ([10]; compound 25 μM): 67% ± 2%
60 bp pvirB FID probe %fluorescence ([10]; compound 50 μM): 58% ± 1%
60 bp pvirB FID probe %fluorescence ([10]; compound 100 μM): 48% ± 2%
